The text below walks through data of US20090105206A1, “Copper Melphalan And Copper Tegafur As Anti-Tumor Agents” (priority 2004, published 2009).

Where “and” joins values, the source holds several entries; their conditions need not be identical. Equal values may be shown once.

The conditions of series [1]: in water: light blue coloring of the solution, foam on shaking.
The subject of series [2] is murine renal cell carcinoma (RENCA) tumor cells applied orthotopically. The series is described as follows: Example 5: orthotopic RENCA model, late treatment from Day 10. Type of series: in vivo, Balb/c mouse. Here is the method:
(§1) The tests were carried out on a murine renal cell carcinoma model (RENCA) of the Balb/c mouse. The tumor cells were applied orthotopically into the left-hand renal capsule of syngenic mice. The effect of the treatment carried out on a primary tumor (in the implanted kidney), metastases (predominantly in the lungs, spleen and intestinal lymph nodes) and vessel density were investigated.
(§2) After anesthesia by means of isoflurane narcosis (O2— flow approx. 2.0 l with 0.5-1.5% isoflurane) a small incision was made in the mouse's left flank. The kidney was prepared and presented free from the peritoneum. A 27 G needle was introduced via the lower kidney pole through to below the renal capsule with visual inspection, and […] in 70 μl aliquots respectively applied once. The occurrence of a visible liquid-filled blister between kidney parenchyma and renal capsule and the discoloration of the kidneys were regarded as criteria for successful application. The kidney was subsequently reset and the incision into the abdominal wall closed by means of fascia stitches and cutaneous stitches with absorbable stitching material. Five test groups with ten animals respectively were formed. Group 1 negative control, group 2 positive control melphalan (Glaxo), group 3 and 4 MOC melphalan 2.5 mg/kg and 5 mg/kg. In the case of group 5 an antiangiogenically effective substance was applied as the positive control. The start of treatment was fixed for day 1 post op. for Cu(melphalan)2. Treatment was carried out daily up to day seven (see treatment model). The test was ended after 19 days since, owing to their size, the control tumors required termination for ethical reasons.
(§3) After selecting the animals the tissues to be examined were quickly transferred into liquid nitrogen and then frozen at −80° C. 5-10 μm thick sections were prepared from the tissue parts. The preparations were immunohistochemically dyed with an anti-CD31 antibody (Pecam-1) and the number of vessels in the control and treatment groups counted. Two sections of each tumor with three areas respectively were used for counting the vessels.
The study report matches that of Example 4, differing only in terms of treatment intervals and dose groups. Four test groups with ten animals respectively were formed. Group 1 negative control, group 2 positive control melphalan (Glaxo), groups 3 and 4 Cu(melphalan)2 5 mg/kg and 7.5 mg/kg. The start of treatment was fixed for day 10 post op. for all groups. The intention was for daily treatment from day 10 until day 17 (see treatment model). Owing to toxicities the treatment period was reduced to day 10-14. After 18 days the test was ended since, owing to their size, the control tumors required termination for ethical reasons.
• The implantation day was counted as day 0. • Duration of the test 18 days. • Number of animals at beginning of test 40; no animals died during the op.

A further series relates to OVCAR-3/P19 tumor cells. The series is described as follows: Example 6: NOD/SCID mice s.c. injected with OVCAR-3 tumor cells. Type of series: in vivo, female NOD/SCID mice. Further details: Vol (tumor volume) Day 20 / Vol (tumor volume) Day 30 / Vol (tumor volume) Day 37: unit: cm^3. As for the experimental part:
2×10^6 OVCAR-3/P19 tumor cells were s.c. injected into female NOD/SCID mice. The mice were treated as follows.
The treatment began with a mean tumor volume of 80 mm^3.
To level possible differences in tumor volume at the start of treatment in the individual groups and to make evident differences owing to the low absolute volumes in the treatment groups, the relative tumor volumes (RTV) have been analyzed. The relative tumor volume results from the ratio of the volume on day x and the tumor volume at the start of treatment in the same test animal. […] The tumor growth was stopped in group 2 after just 7 days. After 3 days of constant tumor volume a tumor regression began from day 30 (10th day of treatment) in the test animals treated with copper-melphalan.

The subject of series [3] is murine renal cell carcinoma (RENCA) tumor cells applied orthotopically. The series is described as follows: Example 4: orthotopic renal cell carcinoma model (RENCA), treatment Day 1-7; primary tumor, metastases, vessel density (anti-CD31). The settings on record: Melphalan 16.4 μmol/kg (5 mg/kg/d) i.p. Day 1-7, individual animals. Type of series: in vivo, Balb/c mouse. As for the experimental part:
as §1, §2
• The implantation day was counted as day 0. • Duration of the test 19 days. • Number of animals at beginning of test 50, no animals died during the op.
as §3

Where [4] appears, read: Melphalan 16.4 μmol/kg (5 mg/kg/d) i.p. Day 10-14, day 18, individual animals.
Setting [5] is: Gr. 2, 5 mg/kg melphalan i.p., individual animals.
The mark [6] stands for this setting: Gr. 2, 5 mg/kg melphalan i.p., n = 8.
[7] abbreviates: Gr. 2, 5 mg/kg melphalan i.p., n = 8, baseline.

Take `O=c1[n-]c(=O)n(C2CCCO2)cc1F.O=c1[n-]c(=O)n(C2CCCO2)cc1F.[Cu+2]` (centres unmarked) [Cu(tegafur)2]: the solubility behavior result in series [1] is given as “substantially matched that of a copper(II) salt”.
Take `N[C@@H](Cc1ccc(N(CCCl)CCCl)cc1)C(=O)O` [Melphalan, 4-[bis-(2-chloroethyl)-amino]-L-phenylalanine]: in series [2] (setting [4]), the Kidney weight was 2.77 gr and 1.38 gr and 0.69 gr and 2.91 gr and 1.90 gr (2×) and 1.63 gr and 2.11 gr and 1.45 gr and 1.13 gr; the Lung weight was 0.14 gr and 0.15 gr and 0.13 gr (2×) and 0.28 gr and 0.11 gr and 0.38 gr and 0.10 gr and 0.31 gr; the “Number of intestinal lymph node metastases” value was 91 and 0 (3×) and 49 and 17 and 22 and 32 and 84; the “Number of lung metastases (late treatment day 10-14)” value is 304 and 614 and 317 and 5 and 750 (3×) and 71 and 500 and 46. Further, the “Vessel density, later start of treatment day 10-14” value in series [2] (Melphalan 16.4 μmol/kg (5 mg/kg/d) i.p. Day 10-14, individual sections) is 36 (2×) and 28 and 42 and 41 and 68 and 35 and 47 and 32 and 37 and 64 and 62 and 40 (2×) and 34. For the same compound, the Kidney volume in series [2] (Melphalan 16.4 μmol/kg (5 mg/kg/d) i.p. from Day 10 (planned 10-17, reduced to 10-14), test ended day 18, individual animals) was 3.94 cm^3 and 2.59 cm^3 and 2.08 cm^3 and 4.25 cm^3 and 2.84 cm^3 and 2.20 cm^3 and 3.91 cm^3 and 3.63 cm^3 and 2.80 cm^3 and 3.23 cm^3. Moreover, in the series on OVCAR-3/P19 tumor cells (Gr. 2, 5 mg/kg melphalan i.p. days 21-37 every 2nd day, Day 20 = start of treatment (baseline), individual animals), the “Vol (tumor volume) Day 20” value was 0.04 (2×) and 0.03 and 0.10 (2×) and 0.20 and 0.05 and 0.12. Moreover, the “RTV (relative tumor volume) Day 20” value in the series on OVCAR-3/P19 tumor cells (Gr. 2, 5 mg/kg melphalan i.p., Day 20 = start of treatment (baseline), individual animals) amounted to 1.00. In the series on OVCAR-3/P19 tumor cells (setting [5]), the “RTV (relative tumor volume) Day 30” value is 2.75 and 3.00 and 1.40 and 1.75 and 3.20 and 1.42 and 2.20 and 2.50; the “RTV (relative tumor volume) Day 37” value was 1.98 and 2.37 and 0.81 and 1.05 and 1.66 and 0.82 and 1.71 and 1.18; the “Vol (tumor volume) Day 30” value is 0.11 and 0.09 and 0.14 and 0.35 and 0.16 and 0.17 and 0.22 and 0.10; the “Vol (tumor volume) Day 37” value is 0.08 (3×) and 0.07 and 0.21 and 0.10 and 0.17 and 0.05. Moreover, in the series on OVCAR-3/P19 tumor cells (setting [6]), the “RTV Day 30, mean” value came out at 2.28; the “RTV Day 30, median” value is on record as 2.35; the “RTV Day 37, mean” value is on record as 1.45; the “RTV Day 37, median” value was 1.42. Further, in the series with OVCAR-3/P19 tumor cells (setting [6]), the “Vol Day 30, mean” value is 0.17; the “Vol Day 30, median” value was 0.15; the “Vol Day 37, mean” value is listed as 0.11; the “Vol Day 37, median” value is recorded as 0.08. Also, in the series with OVCAR-3/P19 tumor cells (setting [7]), the “RTV Day 20, mean” value stood at 1.00; the “RTV Day 20, median” value turned out to be 1.00; the “Vol Day 20, mean” value is recorded as 0.09; the “Vol Day 20, median” value is 0.08. Moreover, in the series with OVCAR-3/P19 tumor cells (Gr. 2, 5 mg/kg melphalan, 6 of 8 mice), the “mice with RTV>1 on day 37” value amounted to 75%. In addition, the “tumor regression / growth at the end of treatment” value in the series with OVCAR-3/P19 tumor cells (Gr. 2, 5 mg/kg melphalan, range over test animals) is “between 20% tumor regression and 98% growth”. Further, in series [3] (day 19), the Kidney weight is 1.70 gr and 0.38 gr and 0.44 gr and 0.13 gr and 1.02 gr and 1.23 gr and 0.12 gr and 0.34 gr and 0.40 gr and 0.65 gr; the Lung weight was 0.12 gr (2×) and 0.20 gr and 0.13 gr and 0.76 gr and 0.10 gr and 0.25 gr and 0.48 gr and 0.22 gr and 0.14 gr; the “Number of intestinal lymph node metastases” value is 0 (6×) and 9 and 2 and 8 and 5; the “Number of lung metastases” value is 7 and 273 and 1 and >750 (2×) and 28 (2×) and 5 and 640 and 328. In series [3] (test ended day 19), the Kidney volume is 2.69 cm^3 and 0.58 cm^3 and 1.3 cm^3 and 0.28 cm^3 and 1.76 cm^3 and 2.00 cm^3 and 0.37 cm^3 and 0.77 cm^3 and 1.26 cm^3 and 1.60 cm^3.
